Test results taken from the NIST ThermoML archive (doi:10.1016/j.jct.2015.09.020).

Assay: mn = molality of the nth substance listed, in mol/kg
Conditions: 101.3 kPa, Liquid

Cl.NCC(=O)O [glycine hydrochloride] + O
Conditions	speed of sound [m/s]
278.15 K, Frequency=2 MHz, Linear variable-path acoustic interferometer, m1 = 0.0508	1430.8
278.15 K, Frequency=2 MHz, Linear variable-path acoustic interferometer, m1 = 0.0811	1433.6
278.15 K, Frequency=2 MHz, Linear variable-path acoustic interferometer, m1 = 0.1008	1435
278.15 K, Frequency=2 MHz, Linear variable-path acoustic interferometer, m1 = 0.1202	1436.2
278.15 K, Frequency=2 MHz, Linear variable-path acoustic interferometer, m1 = 0.1499	1438.3
278.15 K, Frequency=2 MHz, Linear variable-path acoustic interferometer, m1 = 0.1801	1441.1
278.15 K, Frequency=2 MHz, Linear variable-path acoustic interferometer, m1 = 0.2112	1443.2
278.15 K, Frequency=2 MHz, Linear variable-path acoustic interferometer, m1 = 0.2325	1445.3
278.15 K, Frequency=2 MHz, Linear variable-path acoustic interferometer, m1 = 0.2472	1445.9
278.15 K, Frequency=2 MHz, Linear variable-path acoustic interferometer, m1 = 0.2732	1448
278.15 K, Frequency=2 MHz, Linear variable-path acoustic interferometer, m1 = 0.2995	1449.7
278.15 K, Frequency=2 MHz, Linear variable-path acoustic interferometer, m1 = 0.3208	1451.3
278.15 K, Frequency=2 MHz, Linear variable-path acoustic interferometer, m1 = 0.3529	1454.1
288.15 K, Frequency=3 MHz, Sing-around technique in a fixed-path interferometer, m1 = 0.05	1469.8
288.15 K, Frequency=3 MHz, Sing-around technique in a fixed-path interferometer, m1 = 0.0802	1471.7
288.15 K, Frequency=3 MHz, Sing-around technique in a fixed-path interferometer, m1 = 0.1002	1473.1
288.15 K, Frequency=3 MHz, Sing-around technique in a fixed-path interferometer, m1 = 0.1216	1474.5
288.15 K, Frequency=3 MHz, Sing-around technique in a fixed-path interferometer, m1 = 0.1506	1476.6
288.15 K, Frequency=3 MHz, Sing-around technique in a fixed-path interferometer, m1 = 0.1821	1479
288.15 K, Frequency=3 MHz, Sing-around technique in a fixed-path interferometer, m1 = 0.21	1480.8
288.15 K, Frequency=3 MHz, Sing-around technique in a fixed-path interferometer, m1 = 0.2318	1482.2
288.15 K, Frequency=3 MHz, Sing-around technique in a fixed-path interferometer, m1 = 0.2508	1483.4
288.15 K, Frequency=3 MHz, Sing-around technique in a fixed-path interferometer, m1 = 0.2723	1484.8
288.15 K, Frequency=3 MHz, Sing-around technique in a fixed-path interferometer, m1 = 0.3012	1486.4
288.15 K, Frequency=3 MHz, Sing-around technique in a fixed-path interferometer, m1 = 0.3205	1488.1
288.15 K, Frequency=3 MHz, Sing-around technique in a fixed-path interferometer, m1 = 0.3534	1489.9
298.15 K, Frequency=3 MHz, Sing-around technique in a fixed-path interferometer, m1 = 0.0515	1500
298.15 K, Frequency=3 MHz, Sing-around technique in a fixed-path interferometer, m1 = 0.0839	1502
298.15 K, Frequency=3 MHz, Sing-around technique in a fixed-path interferometer, m1 = 0.1035	1503.3
298.15 K, Frequency=3 MHz, Sing-around technique in a fixed-path interferometer, m1 = 0.1305	1504.9
298.15 K, Frequency=3 MHz, Sing-around technique in a fixed-path interferometer, m1 = 0.1453	1505.9
298.15 K, Frequency=3 MHz, Sing-around technique in a fixed-path interferometer, m1 = 0.185	1508.2
298.15 K, Frequency=3 MHz, Sing-around technique in a fixed-path interferometer, m1 = 0.2073	1509.4
298.15 K, Frequency=3 MHz, Sing-around technique in a fixed-path interferometer, m1 = 0.2401	1511.3
298.15 K, Frequency=3 MHz, Sing-around technique in a fixed-path interferometer, m1 = 0.2727	1513.2
298.15 K, Frequency=3 MHz, Sing-around technique in a fixed-path interferometer, m1 = 0.3029	1514.9
298.15 K, Frequency=3 MHz, Sing-around technique in a fixed-path interferometer, m1 = 0.3177	1515.8
298.15 K, Frequency=3 MHz, Sing-around technique in a fixed-path interferometer, m1 = 0.3535	1517.9

Conditions	mass density [kg/m3]
278.15 K, Pycnometric method, m1 = 0.0508	1002.4
278.15 K, Pycnometric method, m1 = 0.0811	1003.61
278.15 K, Pycnometric method, m1 = 0.1008	1004.87
278.15 K, Pycnometric method, m1 = 0.1202	1005.41
278.15 K, Pycnometric method, m1 = 0.1499	1006.88
278.15 K, Pycnometric method, m1 = 0.1801	1008.05
278.15 K, Pycnometric method, m1 = 0.2112	1009.37
278.15 K, Pycnometric method, m1 = 0.2325	1010.42
278.15 K, Pycnometric method, m1 = 0.2472	1011.07
278.15 K, Pycnometric method, m1 = 0.2732	1012.17
278.15 K, Pycnometric method, m1 = 0.2995	1013.21
278.15 K, Pycnometric method, m1 = 0.3208	1014.01
278.15 K, Pycnometric method, m1 = 0.3529	1015.11
288.15 K, Vibrating tube method, m1 = 0.05	1001.39
288.15 K, Vibrating tube method, m1 = 0.0802	1002.72
288.15 K, Vibrating tube method, m1 = 0.1002	1003.61
288.15 K, Vibrating tube method, m1 = 0.1216	1004.54
288.15 K, Vibrating tube method, m1 = 0.1506	1005.74
288.15 K, Vibrating tube method, m1 = 0.1821	1007.14
288.15 K, Vibrating tube method, m1 = 0.21	1008.37
288.15 K, Vibrating tube method, m1 = 0.2318	1009.27
288.15 K, Vibrating tube method, m1 = 0.2508	1010.04
288.15 K, Vibrating tube method, m1 = 0.2723	1010.95
288.15 K, Vibrating tube method, m1 = 0.3012	1012.17
288.15 K, Vibrating tube method, m1 = 0.3205	1012.97
288.15 K, Vibrating tube method, m1 = 0.3534	1014.37
298.15 K, Vibrating tube method, m1 = 0.0839	1000.75
298.15 K, Vibrating tube method, m1 = 0.1035	1001.57
298.15 K, Vibrating tube method, m1 = 0.1305	1002.87
298.15 K, Vibrating tube method, m1 = 0.1453	1003.51
298.15 K, Vibrating tube method, m1 = 0.185	1005.13
298.15 K, Vibrating tube method, m1 = 0.2073	1005.96
298.15 K, Vibrating tube method, m1 = 0.2401	1007.29
298.15 K, Vibrating tube method, m1 = 0.2727	1008.59
298.15 K, Vibrating tube method, m1 = 0.3029	1009.81
298.15 K, Vibrating tube method, m1 = 0.3177	1010.44
298.15 K, Vibrating tube method, m1 = 0.3535	1011.84
